From patent publication US9303016B2, “Derivatives of aza adamantane and uses thereof” (CONNEXIOS LIFE SCIENCES PVT. LTD., priority 2011, dated 2016)
pIC50: −log10 of the molar value.

Biological target: T1, human full length HSD11β1 (Homo sapiens, UniProt P28845)
T1 construct: transient expression of human full length HSD11β1 expression vector; host or cells: CHO cells, transient transfection
Test: In Vitro HSD11β1 Inhibition Assay
Assay type: cell-based
Details: CHO cells transiently expressing human HSD11β1; 200 nM cortisone+500 uM NADPH overnight; cortisone to cortisol by LC/MS-MS; read-out: 11βHSD1 (IC50)
Protocol: In Vitro HSD11β1 Inhibition Assay:
CHO cells were maintained in Dulbecco's modified Eagle's medium/nutrient mixture F-12 containing 5% fetal bovine serum (v/v) and 2 mM glutamine. Cells were cultured at 37° C. with 5% CO2. For transient expression of human full length HSD11β1 expression vector (OriGene Technologies), cells were seeded at a density of 2×10^5 cells/well in a 6-well plate. Transfection was done using Turbofectin8 reagent (OriGene Technologies), according to the protocol provided with the reagent. After 24 hours post-transfection, cells were trypsinized and pooled together before they were re-seeding to 96-well plate at a density of 40000 cells/well. 24 hours after re-seeding, cells were incubated with 200 nM cortisone+500 uM NADPH (or along with small molecule inhibitors) overnight. The enzymatic activity or inhibition of enzyme activity was measured by estimating the conversion of cortisone to cortisol by LC/MS-MS method. The IC50 in nM was calculated from a 8 point log scale of concentration versus inhibition.

T1 sequence (P28845 whole entry): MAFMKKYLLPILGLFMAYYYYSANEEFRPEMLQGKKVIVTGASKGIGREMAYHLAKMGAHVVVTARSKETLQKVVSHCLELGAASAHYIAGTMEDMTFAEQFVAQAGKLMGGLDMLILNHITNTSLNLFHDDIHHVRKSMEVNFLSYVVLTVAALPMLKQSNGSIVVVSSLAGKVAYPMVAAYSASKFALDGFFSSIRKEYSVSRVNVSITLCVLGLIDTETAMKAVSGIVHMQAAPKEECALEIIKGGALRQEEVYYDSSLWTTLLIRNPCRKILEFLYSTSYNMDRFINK

pIC50	SMILES
< 6.60	CC(CC(=O)N1C2CC3(O)CC1CC(O)(C2)C3)c1c[nH]c2ccc(Cl)c(C3CC3)c12 (stereo not drawn) [Compound 163, 3-(5-chloro-4-cyclopropyl-1H-indol-3-yl)-1-(5,7-dihydroxy-2-azatricyclo[3.3.1.1^3,7]dec-2-yl)butan-1-one]
6.82 to 7.00	O=C(CC(c1c[nH]c2cccc(F)c12)C1CC1)N1C2CC3CC1CC(O)(C3)C2 (stereo not drawn) [Compound 95, 3-cyclopropyl-3-(4-fluoro-1H-indol-3-yl)-1-(5-hydroxy-2-azatricyclo[3.3.1.1^3,7]dec-2-yl)propan-1-one]
> 7.00	CC(CC(=O)N1C2CC3CC(C2)CC1C3)c1nc2ccccc2s1 (stereo not drawn) [Compound 105, 1-(2-azatricyclo[3.3.1.1^3,7]dec-2-yl)-3-(1,3-benzothiazol-2-yl)butan-1-one]
6.82 to 7.00	CC(CC(=O)N1C2CC3CC1CC(C#N)(C3)C2)c1c[nH]c2cccc(Cl)c12 (stereo not drawn) [Example 59, 2-[3-(4-chloro-1H-indol-3-yl)butanoyl]-2-azatricyclo[3.3.1.1^3,7]decane-5-carbonitrile]
< 6.60	Cc1ccc2[nH]cc(C(C)CC(=O)N3C4CC5CC3CC(O)(C5)C4)c2c1 (stereo not drawn) [Compound 110, 1-(5-hydroxy-2-azatricyclo[3.3.1.1^3,7]dec-2-yl)-3-(5-methyl-1H-indol-3-yl)butan-1-one]
> 7.00	CC(CC(=O)N1C2CC3CC1CC(O)(C3)C2)c1c[nH]c2ncc(Cl)c(C3CC3)c12 (stereo not drawn) [Compound 198, 3-(5-chloro-4-cyclopropyl-1H-pyrrolo[2,3-b]pyridin-3-yl)-1-(5-hydroxy-2-azatricyclo[3.3.1.1^3,7]dec-2-yl)butan-1-one]
> 7.00	CC(CC(=O)N1C2CC3CC1CC(C(N)=O)(C3)C2)c1c[nH]c2cccc(C3CC3)c12 (stereo not drawn) [Example 56, 2-[3-(4-cyclopropyl-1H-indol-3-yl)butanoyl]-2-azatricyclo[3.3.1.1^3,7]decane-5-carboxamide]
< 6.60	CC(C)Oc1cccc2[nH]cc(C(C)CC(=O)N3C4CC5CC3CC(F)(C5)C4)c12 (single isomer, unassigned) [Compound 185, 1-(5-fluoro-2-azatricyclo[3.3.1.1^3,7]dec-2-yl)-3-[4-(propan-2-yloxy)-1H-indol-3-yl]butan-1-one]
6.60 to 6.70	O=C(CCc1c[nH]c2cc(F)ccc12)N1C2CC3CC(C2)CC1C3 [Example 5, 1-(2-azatricyclo[3.3.1.1^3,7]dec-2-yl)-3-(6-fluoro-1H-indol-3-yl)propan-1-one]
6.82 to 7.00	O=C(CC(c1ccc(F)cc1F)c1c[nH]c2ccccc12)N1C2CC3CC1CC(O)(C3)C2 (stereo not drawn) [Compound 96, 3-(2,4-difluorophenyl)-1-(5-hydroxy-2-azatricyclo[3.3.1.1^3,7]dec-2-yl)-3-(1H-indol-3-yl)propan-1-one]
6.60 to 6.70	CC(C)C(CC(=O)N1C2CC3CC(C2)C(O)C1C3)c1c[nH]c2ccccc12 (stereo not drawn) [Example 19, 1-(4-hydroxy-2-azatricyclo[3.3.1.1^3,7]dec-2-yl)-3-(1H-indol-3-yl)-4-methylpentan-1-one]
< 6.60	Cc1cccc2[nH]cc(C(C)CC(=O)N3C4CC5CC3CC(C(=O)O)(C5)C4)c12 (stereo not drawn) [Example 57, 2-[3-(4-methyl-1H-indol-3-yl)butanoyl]-2-azatricyclo[3.3.1.1^3,7]decane-5-carboxylic acid]
> 7.00	O=C(CC(c1ccccc1)c1c[nH]c2cccc(F)c12)N1C2CC3CC1CC(O)(C3)C2 (stereo not drawn) [Compound 83, 3-(4-fluoro-1H-indol-3-yl)-1-(5-hydroxy-2-azatricyclo[3.3.1.1^3,7]dec-2-yl)-3-phenylpropan-1-one]
< 6.60	CC(CC(=O)N1C2CC3CC1CC(O)(C3)C2)c1c[nH]c2ncc(Cl)cc12 (stereo not drawn) [Compound 135, 3-(5-chloro-1H-pyrrolo[2,3-b]pyridin-3-yl)-1-(5-hydroxy-2-azatricyclo[3.3.1.1^3,7]dec-2-yl)butan-1-one]
> 7.00	CC(CC(=O)N1C2CC3CC1CC(CO)(C3)C2)c1c[nH]c2cccc(Cl)c12 (stereo not drawn) [Example 58, 3-(4-chloro-1H-indol-3-yl)-1-[5-(hydroxymethyl)-2-azatricyclo[3.3.1.1^3,7]dec-2-yl]butan-1-one]
6.60 to 6.70	CC(CC(=O)N1C2CC3CC1CC(O)(C3)C2)c1nc2ccccc2s1 (stereo not drawn) [Compound 84, 3-(1,3-benzothiazol-2-yl)-1-(5-hydroxy-2-azatricyclo[3.3.1.1^3,7]dec-2-yl)butan-1-one]
< 6.60	COc1ccc2[nH]cc(C(C)CC(=O)N3C4CC5CC3CC(C#N)(C5)C4)c2c1 (stereo not drawn) [Compound 230, 2-(3-(5-methoxy-1H-indol-3-yl)butanoyl)-2-azaadamantane-5-carbonitrile]
6.70 to 6.82	CC(CC(=O)N1C2CC3CC1CC(CC(=O)O)(C3)C2)c1c[nH]c2ccc(Cl)c(Br)c12 (stereo not drawn) [Compound 162, {2-[3-(4-bromo-5-chloro-1H-indol-3-yl)butanoyl]-2-azatricyclo[3.3.1.1^3,7]dec-5-yl}acetic acid]
< 6.60	Cc1cccc2[nH]cc(C(CC(=O)N3C4CC5CC3CC(O)(C5)C4)c3ccc(F)cc3)c12 (stereo not drawn) [Compound 93, 3-(4-fluorophenyl)-1-(5-hydroxy-2-azatricyclo[3.3.1.1^3,7]dec-2-yl)-3-(4-methyl-1H-indol-3-yl)propan-1-one]
6.70 to 6.82	O=C(CC(c1ccccc1)c1c[nH]c2cc(Cl)ccc12)N1C2CC3CC1CC(C(=O)O)(C3)C2 (stereo not drawn) [Compound 134, 2-[3-(6-chloro-1H-indol-3-yl)-3-phenylpropanoyl]-2-azatricyclo[3.3.1.1^3,7]decane-5-carboxylic acid]
6.82 to 7.00	Cc1c(F)ccc2[nH]cc(C(C)CC(=O)N3C4CC5CC3CC(O)(C5)C4)c12 (single isomer, unassigned) [Compound 147, 3-(5-fluoro-4-methyl-1H-indol-3-yl)-1-(5-hydroxy-2-azatricyclo[3.3.1.1^3,7]dec-2-yl)butan-1-one]
< 6.60	COc1ccc2[nH]cc(C(C)CC(=O)N3C4CC5CC3CC(F)(C5)C4)c2c1 (stereo not drawn) [Compound 224, 1-(5-fluoro-2-azaadamantan-2-yl)-3-(5-methoxy-1H-indol-3-yl)butan-1-one]
< 6.60	CC(CC(=O)N1C2CC3CC1CC(O)(C3)C2)c1c[nH]c2ccc(Cl)cc12 (stereo not drawn) [Example 68, 3-(5-chloro-1H-indol-3-yl)-1-(5-hydroxy-2-azatricyclo[3.3.1.1^3,7]dec-2-yl)butan-1-one]
6.70 to 6.82	CC(CC(=O)N1C2CC3CC1CC(C(N)=O)(C3)C2)c1c[nH]c2cccc(Cl)c12 (stereo not drawn) [Example 47, 2-[3-(4-chloro-1H-indol-3-yl)butanoyl]-2-azatricyclo[3.3.1.1^3,7]decane-5-carboxamide]
< 6.60	O=C(CCc1nc2ccccc2s1)N1C2CC3CC1CC(OC(F)F)(C3)C2 [Example 13, 3-(1,3-benzothiazol-2-yl)-1-[5-(difluoromethoxy)-2-azatricyclo[3.3.1.1^3,7]dec-2-yl]propan-1-one]
< 6.60	CC(CC(=O)N1C2CC3CC(C2)CC1C3)c1c[nH]c2cccc(N3CCC(C(=O)O)CC3)c12 (stereo not drawn) [Compound 183, 1-{3-[4-(2-azatricyclo[3.3.1.1^3,7]dec-2-yl)-4-oxobutan-2-yl]-1H-indol-4-yl}piperidine-4-carboxylic acid]
< 6.60	O=C(CCc1c[nH]c2cccc(F)c12)N1C2CC3CC1CC(O)(C3)C2 [Example 4, 3-(4-fluoro-1H-indol-3-yl)-1-(5-hydroxy-2-azatricyclo[3.3.1.1^3,7]dec-2-yl)propan-1-one]
